In ChEMBL document CHEMBL1671659, “In vitro and in vivo properties of dihydrophthalazine antifolates, a novel family of antibacterial drugs” (Antimicrob Agents Chemother, 2009):
In brackets after ≈: the same amount, converted by molar mass. Activity calls are given as the source filed them. No cut-off for these calls is given here.

Columns and labels:
[1] = test system: Staphylococcus epidermidis; experiment: Antibacterial activity against methicillin, vancomycin, trimethoprim-sensitive Staphylococcus epidermidis ATCC 14990 harboring dfrC gene; format: functional
Staphylococcus aureus [2] = experiment: Antibacterial activity against vancomycin, trimethoprim-sensitive and methicillin-resistant Staphylococcus aureus ATCC 43300 harboring dfrB gene; format: functional
Staphylococcus aureus [3] = experiment: Antibacterial activity against vancomycin, trimethoprim, methicillin-resistant Staphylococcus aureus VRS1 harboring dfrA and dfrB genes; format: functional
Dihydrofolate reductase = Dihydrofolate reductase (Staphylococcus aureus, UniProt P0A017, F99Y); experiment: Inhibition of trimethoprim-resistant Staphylococcus aureus DfrB type dihydrofolate reductase F98Y mutant
[4] = Inhibition of trimethoprim-resistant Staphylococcus aureus Type S1 dihydrofolate reductase
[5] = Inhibition of trimethoprim-sensitive Staphylococcus aureus DfrB type dihydrofolate reductase
[6] = test system: Staphylococcus epidermidis; experiment: Antibacterial activity against methicillin, vancomycin-sensitive and trimethoprim-resistant Staphylococcus epidermidis BAS000635 harboring dfrC and dfrA genes; format: functional
Staphylococcus aureus [7] = experiment: Antibacterial activity against methicillin, vancomycin, trimethoprim-sensitive Staphylococcus aureus ATCC 29213 harboring dfrB gene; format: functional
Mus musculus [8] = experiment: Toxicity in po dosed NMRI mouse; format: organism-based; details: in vivo
HeLa = experiment: Cytotoxicity against human HeLa cells; format: cell-based
Mus musculus [9] = experiment: Hepatotoxicity in NMRI mouse assessed as inflammatory infiltrates at 400 mg/kg administered through oral gavage for 10 days; format: toxicity, organism-based; design: dose 400 mg/kg, route oral; details: in vivo, 240 h
[10] = Tmax in NMRI mouse blood at 25 mg/kg administered through oral gavage measured after 7 hrs; format: ADME, organism-based; design: dose 25 mg/kg, route oral
Mus musculus [11] = experiment: Hepatotoxicity in NMRI mouse assessed as single-cell necrosis at 400 mg/kg administered through oral gavage for 5 days; format: toxicity, organism-based; design: dose 400 mg/kg, route oral; details: in vivo, 120 h
Enterococcus faecium [12] = experiment: Antibacterial activity against Enterococcus faecium in presence of 50 ug/ml thymidine; format: functional
Mus musculus [13] = experiment: Hepatotoxicity in NMRI mouse assessed as increase in liver weight at 400 mg/kg administered through oral gavage for 5 days; format: toxicity, organism-based; design: dose 400 mg/kg, route oral; details: in vivo, 120 h
Staphylococcus aureus [14] = experiment: Antibacterial activity against trimethoprim-sensitive Staphylococcus aureus ATCC 29213; format: functional
Staphylococcus aureus [15] = experiment: Antibacterial activity against methicillin-resistant dfrA within SCCmec-N1, dfrA and dfrG -negative Staphylococcus aureus harboring F98Y mutation in dfrB gene; format: functional
Enterococcus faecium [16] = experiment: Antibacterial activity against vancomycin-resistant dfrE, dfrF-negative and folA-positive Enterococcus faecium; format: functional
[17] = Cmax in NMRI mouse blood at 25 mg/kg administered through oral gavage measured after 7 hrs; format: ADME, organism-based; design: dose 25 mg/kg, route oral
Streptococcus pneumoniae [18] = experiment: Antibacterial activity against Streptococcus pneumoniae in presence of 250 ug/ml thymidine; format: functional
Enterococcus faecium [19] = experiment: Antibacterial activity against Enterococcus faecium in presence of 250 ug/ml thymidine; format: functional
Staphylococcus aureus [20] = experiment: Antibacterial activity against trimethoprim-sensitive Staphylococcus aureus ATCC 29213 infected in NMRI mouse model of septicemia assessed as succumbed to infections at 1.6 mg/kg, iv; format: functional, organism-based; design: dose 1.6 mg/kg
Enterococcus faecalis [21] = experiment: Antibacterial activity against Enterococcus faecalis; format: functional
Staphylococcus aureus [22] = experiment: Antibacterial activity against methicillin-resistant dfrB, dfrG-positive and dfrA-negative Staphylococcus aureus; format: functional
Enterococcus faecalis [23] = experiment: Antibacterial activity against Enterococcus faecalis in presence of 250 ug/ml thymidine; format: functional
Haemophilus influenzae [24] = experiment: Antibacterial activity against Haemophilus influenzae in presence of 50 ug/ml thymidine
[25] = test system: Staphylococcus epidermidis; experiment: Antibacterial activity against methicillin-resistant dfrC, dfrA-positive and dfrA within SCCmec-N1, dfrD-negative Staphylococcus epidermidis; format: functional
Mycobacterium avium [26] = experiment: Antibacterial activity against Mycobacterium avium assessed as inhibition of bacterial growth at <=4 ug/ml; format: functional; design: scale not given: the % may be the effect or the level left
Mus musculus [27] = experiment: Hepatotoxicity in NMRI mouse assessed as increase in liver weight at 400 mg/kg administered through oral gavage for 10 days; format: toxicity, organism-based; design: dose 400 mg/kg, route oral; details: in vivo, 240 h
Staphylococcus aureus [28] = experiment: Antibacterial activity against trimethoprim-resistant Staphylococcus aureus BAS003908 infected in NMRI mouse model of septicemia; format: functional
Streptococcus pneumoniae [29] = experiment: Antibacterial activity against Streptococcus pneumoniae in presence of 50 ug/ml thymidine; format: functional
Staphylococcus aureus [30] = experiment: Antibacterial activity against trimethoprim-sensitive Staphylococcus aureus ATCC 29213 infected in NMRI mouse model of septicemia; format: functional
[31] = test system: Staphylococcus epidermidis; experiment: Antibacterial activity against methicillin-sensitive dfrA-positive and dfrD-negative Staphylococcus epidermidis harboring F98Y mutation in dfrC gene; format: functional
Mus musculus [32] = experiment: Hepatotoxicity in NMRI mouse assessed as inflammatory infiltrates at 400 mg/kg administered through oral gavage for 5 days; format: toxicity, organism-based; design: dose 400 mg/kg, route oral; details: in vivo, 120 h
Enterococcus faecalis [33] = experiment: Antibacterial activity against vancomycin-sensitive folA, dfrF-negative Enterococcus faecalis harboring A5T, K88N, F102Y mutation in dfrE gene; format: functional
Enterococcus faecium [34] = experiment: Antibacterial activity against vancomycin-sensitive dfrE, dfrF-negative and folA-positive Enterococcus faecium; format: functional
Enterococcus faecalis [35] = experiment: Antibacterial activity against vancomycin-sensitive dfrE, dfrF-positive and folA-negative Enterococcus faecalis; format: functional
[36] = test system: Staphylococcus epidermidis; experiment: Antibacterial activity against methicillin-sensitive dfrA, dfrD-negative Staphylococcus epidermidis harboring F98Y mutation in dfrC gene; format: functional
Staphylococcus aureus [37] = experiment: Antibacterial activity against trimethoprim-sensitive Staphylococcus aureus ATCC 29213 infected in NMRI mouse model of septicemia assessed as complete protection from infections at 3.1 mg/kg, iv; format: functional, organism-based; design: dose 3.1 mg/kg
Mus musculus [38] = experiment: Hepatotoxicity in NMRI mouse assessed as single-cell necrosis at 400 mg/kg administered through oral gavage for 10 days; format: toxicity, organism-based; design: dose 400 mg/kg, route oral; details: in vivo, 240 h
Staphylococcus aureus [39] = experiment: Antibacterial activity against methicillin-resistant dfrB, dfrA-positive and dfrA within SCCmec-N1, dfrG-negative Staphylococcus aureus; format: functional
Enterococcus faecium [40] = experiment: Antibacterial activity against Enterococcus faecium; format: functional
Enterococcus faecalis [41] = experiment: Antibacterial activity against Enterococcus faecalis in presence of 50 ug/ml thymidine; format: functional
Staphylococcus aureus [42] = experiment: Antibacterial activity against methicillin-sensitive dfrB-positive abd dfrA, dfrG-negative Staphylococcus aureus; format: functional
[43] = test system: Staphylococcus epidermidis; experiment: Antibacterial activity against methicillin-sensitive dfrC-positive and dfrA, dfrD-negative Staphylococcus epidermidis; format: functional
Haemophilus influenzae [44] = experiment: Antibacterial activity against Haemophilus influenzae in presence of 250 ug/ml thymidine; format: functional
[45] = AUC (0 to t) in NMRI mouse blood at 25 mg/kg administered through oral gavage after 7 hrs; format: ADME, organism-based; design: time < 7 hr, dose 25 mg/kg, route oral
Haemophilus influenzae [46] = experiment: Antibacterial activity against Haemophilus influenzae; format: functional
Mus musculus [47] = experiment: Hepatotoxicity in NMRI mouse assessed as increase in mitosis at 400 mg/kg administered through oral gavage for 10 days; format: toxicity, organism-based; design: dose 400 mg/kg, route oral; details: in vivo, 240 h
[48] = Oral bioavailability in NMRI mouse; format: ADME, organism-based; details: in vivo
[49] = test system: Staphylococcus epidermidis; experiment: Antibacterial activity against methicillin-sensitive dfrC, dfrA-positive and dfrD-negative Staphylococcus epidermidis; format: functional
Mus musculus [50] = experiment: Hepatotoxicity in NMRI mouse assessed as increase in mitosis at 400 mg/kg administered through oral gavage for 5 days; format: toxicity, organism-based; design: dose 400 mg/kg, route oral; details: in vivo, 120 h
Staphylococcus aureus [51] = experiment: Antibacterial activity against trimethoprim-resistant Staphylococcus aureus BAS003908; format: functional
Streptococcus pneumoniae [52] = experiment: Antibacterial activity against Streptococcus pneumoniae
Mycobacterium avium [53] = experiment: Antibacterial activity against Mycobacterium avium; format: functional

## COc1cc(Cc2cnc(N)nc2N)cc(/C=C/C(=O)N2N=Cc3ccccc3[C@@H]2c2cnc(N3CCOCC3)nc2)c1OC
[1]
  MIC: 0.25 µg/mL (≈ 0.411 µM)
Staphylococcus aureus [2]
  MIC: 1 µg/mL (≈ 1.65 µM)
Staphylococcus aureus [3]
  MIC: 2 µg/mL (≈ 3.29 µM)
Dihydrofolate reductase
  IC50: 64.4 nM
[4]
  IC50: 98 nM
[5]
  IC50: 8.9 nM
[6]
  MIC: 2 µg/mL (≈ 3.29 µM)
Staphylococcus aureus [7]
  MIC: 1 µg/mL (≈ 1.65 µM)

## COc1cc(Cc2cnc(N)nc2N)cc(/C=C/C(=O)N2N=Cc3ccccc3C2c2cnc(N3CCOCC3)nc2)c1OC (stereo not given)
Mus musculus [8]
  Activity: 400 mg/kg
HeLa
  IC50: 12000 nM
Mus musculus [9]
  Activity: < 10%
[10]
  Tmax: 6 h
Mus musculus [11]
  Activity: < 10%
Enterococcus faecium [12]
  MIC: ≥ 128 µg/mL
Mus musculus [13]
  Activity: < 10%
Staphylococcus aureus [14]
  MIC: 0.5 µg/mL (≈ 0.823 µM)
Staphylococcus aureus [15]
  MIC: 1 µg/mL (≈ 1.65 µM)
Enterococcus faecium [16]
  MIC: 2 µg/mL (≈ 3.29 µM)
[17]
  Cmax: 990 ng/mL
Streptococcus pneumoniae [18]
  MIC: ≥ 128 µg/mL
Enterococcus faecium [19]
  MIC: > 128 µg/mL
Staphylococcus aureus [20]
  Activity: inactive
Enterococcus faecalis [21]
  MIC: 0.5 µg/mL (≈ 0.823 µM)
Staphylococcus aureus [22]
  MIC: 64 µg/mL (≈ 105 µM)
Enterococcus faecalis [23]
  MIC: 2 µg/mL
Haemophilus influenzae [24]
  MIC: ≥ 128 µg/mL
[25]
  MIC: 1 µg/mL (≈ 1.65 µM)
Mycobacterium avium [26]
  Activity: 77%
Mus musculus [27]
  Activity: < 10%
Staphylococcus aureus [28]
  ED50: 1.6 mg/kg
Streptococcus pneumoniae [29]
  MIC: ≥ 128 µg/mL
Staphylococcus aureus [30]
  ED50: 1.6 mg/kg
[1]
  MIC: 0.25 µg/mL (≈ 0.411 µM)
Staphylococcus aureus [2]
  MIC: 0.5 µg/mL (≈ 0.823 µM)
[31]
  MIC: 1 µg/mL (≈ 1.65 µM)
Mus musculus [32]
  Activity: < 10%
Enterococcus faecalis [33]
  MIC: 1 µg/mL (≈ 1.65 µM)
Enterococcus faecium [34]
  MIC: ≤ 0.25 µg/mL
Enterococcus faecalis [35]
  MIC: > 128 µg/mL
[36]
  MIC: 1 µg/mL (≈ 1.65 µM)
Staphylococcus aureus [37]
  Activity: Active
Mus musculus [38]
  Activity: < 10%
Staphylococcus aureus [39]
  MIC: 1 µg/mL (≈ 1.65 µM)
Staphylococcus aureus [39]; Staphylococcus aureus, read-out: MIC
  MIC: 0.5 µg/mL (≈ 0.823 µM)
Staphylococcus aureus [3]
  MIC: 2 µg/mL (≈ 3.29 µM)
Dihydrofolate reductase
  IC50: 124 nM
Enterococcus faecium [40]
  MIC: 2 µg/mL (≈ 3.29 µM)
Enterococcus faecalis [41]
  MIC: ≤ 0.25 µg/mL
Staphylococcus aureus [42]
  MIC: 0.5 µg/mL (≈ 0.823 µM)
[43]
  MIC: < 0.25 µg/mL
Haemophilus influenzae [44]
  MIC: ≥ 128 µg/mL
[45]
  AUC(0-t) at 7 h: 5590 ng·h/mL
Haemophilus influenzae [46]
  MIC: > 128 µg/mL
Mus musculus [47]
  Activity: < 10%
[48]
  bioavailability: 29%
[4]
  IC50: 154 nM
[49]
  MIC: 1 µg/mL (≈ 1.65 µM)
Mus musculus [50]
  Activity: < 10%
[5]
  IC50: 12.2 nM
[6]
  MIC: 2 µg/mL (≈ 3.29 µM)
Staphylococcus aureus [7]
  MIC: 1 µg/mL (≈ 1.65 µM)
Staphylococcus aureus [51]
  MIC: 1 µg/mL (≈ 1.65 µM)
Streptococcus pneumoniae [52]
  MIC: ≥ 128 µg/mL

## COc1cc(Cc2cnc(N)nc2N)cc(/C=C/C(=O)N2N=Cc3ccccc3[C@@H]2c2cnc(N(C)C)nc2)c1OC
[1]
  MIC: 0.25 µg/mL (≈ 0.442 µM)
Staphylococcus aureus [2]
  MIC: 0.5 µg/mL (≈ 0.884 µM)
Staphylococcus aureus [3]
  MIC: 2 µg/mL (≈ 3.54 µM)
Dihydrofolate reductase
  IC50: 40.9 nM
[4]
  IC50: 35.1 nM
[5]
  IC50: 9.2 nM
[6]
  MIC: 2 µg/mL (≈ 3.54 µM)
Staphylococcus aureus [7]
  MIC: 0.5 µg/mL (≈ 0.884 µM)

## COc1ncc([C@@H]2c3ccccc3C=NN2C(=O)/C=C/c2cc(Cc3cnc(N)nc3N)cc(OC)c2OC)cn1
[1]
  MIC: 0.5 µg/mL (≈ 0.905 µM)
Staphylococcus aureus [2]
  MIC: 1 µg/mL (≈ 1.81 µM)
Staphylococcus aureus [3]
  MIC: > 8 µg/mL
Dihydrofolate reductase
  IC50: 1150 nM
[4]
  IC50: 1330 nM
[5]
  IC50: 12.5 nM
[6]
  MIC: > 8 µg/mL
Staphylococcus aureus [7]
  MIC: 2 µg/mL (≈ 3.62 µM)

## Nc1ccc(S(=O)(=O)c2ccc(N)cc2)cc1 [DAPSONE]
Mycobacterium avium [53]
  MIC: < 16 µg/mL
